Data published in patent publication US20180258069A1, “NEW CRYSTAL OF PIPERAZINE COMPOUND” (TAIHO PHARMACEUTICAL CO., LTD., priority 2015, published 2018).

Experiments:
[1] = target: hematopoietic prostaglandin D synthase (H-PGDS) (Homo sapiens, UniProt O60760); settings: disclosed in Patent Document 1; cited from earlier work
[2] = Solid stability test (under exposure to light); assay type: physicochemical; settings: for Change of crystal form (powder X-ray crystal analysis): room temperature, after irradiation at 3500000 lux·h (2000 lux×1750 h)
Procedure: Using crystals I and II obtained in the Examples, the solid stability after storage under exposure to light was measured.
Storage conditions: crystal I was stored at room temperature under exposure to light after being placed in a transparent glass dish covered with a lid. Measurement point: after irradiation at 3500000 lux·h (irradiation at 2000 lux×1750 h)
Storage Container: Transparent Glass Dish
The powder X-ray diffraction upon the storage stability test was measured after an appropriate amount of the test substance was lightly pulverized as necessary using an agate mortar under the following test conditions.
Device: MiniFlex II, Rigaku Corporation
X-ray output power: 15 mA, 30 kV Scanning range: 3.0 to 40.0° Step size: 0.010° Scanning speed: […]. Divergence slit: 1.25° Scatter slit: open Receiving slit: open

[3] = Solid stability test (40° C., under light shielding), chemical purity by HPLC; assay type: physicochemical
Procedure: Using crystal I obtained in the Examples, the solid stability after storage at 40° C. under light shielding was measured.
Storage conditions: crystal I was stored at 40° C. after being placed in a light shielding bottle covered with a lid. Measurement points: after 1 month, after 3 months, after 6 months
The amount of analog in the sample solution was measured by HPLC analysis. Handling of the device, including data processing, was performed in accordance with the method and procedures specified for each device (device: 2130-2450, HITACHI).
Column: Mightysil RP-18 GP 150-4.6 (5 μm)
UV detection: 220 nm Column temperature: 40° C. Column flow rate: 1.0 mL/min Mobile phase: A: acetonitrile, B: 10 mM phos. buffer

[4] = Dynamic vapor sorption (DVS) system analysis (moisture adsorption-desorption test); assay type: physicochemical; settings: 25° C., 5% to 95% RH
Procedure: Dynamic vapor sorption (DVS) system analysis was performed under the following conditions.
Device: VTI SGA-100, TA Instruments
Sample: about 10 mg Measurement temperature: 25° C. RH steps: 5-95-1% RH by 5% RH
Hygroscopic properties of crystals I and II obtained in the Examples were confirmed by dynamic vapor sorption (DVS) system analysis.
The adsorption and desorption data was collected at 5% RH intervals in a range of relative humidity (RH) of 5% to 95%. Before the measurement, the samples were heated under nitrogen purging to 25° C. at 1° C./min, followed by drying for up to 6 hours until the weight change in 5 minutes became less than 0.0100%. The measurement was performed with equilibration for up to 2 hours until the weight change in 5 minutes became less than 0.0100%.

hematopoietic prostaglandin D synthase (H-PGDS), sequence (O60760 whole entry): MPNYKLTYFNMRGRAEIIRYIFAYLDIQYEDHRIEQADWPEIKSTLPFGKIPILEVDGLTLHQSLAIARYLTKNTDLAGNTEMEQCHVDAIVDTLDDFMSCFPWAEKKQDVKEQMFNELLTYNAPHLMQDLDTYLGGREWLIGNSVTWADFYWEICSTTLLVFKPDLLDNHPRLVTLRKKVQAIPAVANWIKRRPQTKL

Structure (SMILES)	H-PGDS inhibiting effect [1]	Chemical purity after long-term storage under exposure to light [2]	Change of crystal form (powder X-ray crystal analysis) [2]	Chemical Purity (%) ([3]; After 1 month at 40° C. under light shielding)	Chemical Purity (%) ([3]; After 3 months at 40° C. under light shielding)	Chemical Purity (%) ([3]; After 6 months at 40° C. under light shielding)	Chemical Purity (%) ([3]; Initial Value, before storage)	Change of chemical purity after storage ([3]; storage at 40° C. under light shielding)	Change in weight due to changes in humidity [4]	Powder X-ray crystal analysis before and after moisture adsorption and desorption [4]
Cn1cccc1C(=O)N1CCN(C(=O)Nc2ccc(N3CCC(C(=O)N4CCOCC4)CC3)cc2)CC1 [Compound (1), 4-((1-methylpyrrol-2-yl)-carbonyl)-N-(4-(4-morpholin-1-yl-carbonylpiperidin-1-yl)-phenyl)-1-piperazinecarboxamide]	inhibiting effect									
Cn1cccc1C(=O)N1CCN(C(=O)Nc2ccc(N3CCC(C(=O)N4CCOCC4)CC3)cc2)CC1 [crystal I, monohydrate of 4-((1-methylpyrrol-2-yl)-carbonyl)-N-(4-(4-morpholin-1-yl-carbonylpiperidin-1-yl)-phenyl)-1-piperazinecarboxamide]		not decreased	not changed	99.8	99.6	99.9	99.8	not changed	no changes in weight	not changed
Cn1cccc1C(=O)N1CCN(C(=O)Nc2ccc(N3CCC(C(=O)N4CCOCC4)CC3)cc2)CC1 [crystal II, 4-((1-methylpyrrol-2-yl)-carbonyl)-N-(4-(4-morpholin-1-yl-carbonylpiperidin-1-yl)-phenyl)-1-piperazinecarboxamide]		not decreased	changed						great change in weight	not changed
